From US4499091A, “1-Amino (or substituted amino)-1,4-dihydro-4-oxo-6-fluoro-7-heterylquinoline-3-carboxylic acids and their use as antibacterial agents” (Sterling Drug Inc., priority 1983, dated 1985)
Values after ≈ are worked out from the molar mass of the structure shown. Where two headings read alike, the source gives them in different places.

Legend:
Escherichia coli Vogel [1] = assay: in vitro antibacterial activity, serial dilution (MIC); type: cell-based; conditions: 18-20 hours static incubation, read-out: Minimal Inhibitory Concentration (MIC)
Procedure: (§1) The in vitro antibacterial activity of the compounds of the invention was determined by conventional serial dilution procedures. Bacterial cultures were grown in tryptose phosphate broth or brain heart infusion broth (containing heat-inactivated normal horse serum for tests with S. pyogenes) overnight at 37° C. and subsequently diluted in double strength broth to provide bacterial inocula of about 2×10^5 cells/ml. Aqueous solutions of the compounds of the invention were prepared by dissolving the free acid form in 0.5N sodium hydroxide. The solutions were diluted with sterile distilled water to 1000 mcg/ml of compound in terms of the free acid. Serial two-fold dilutions of the compound stock solutions were prepared in water and 0.5 ml of each dilution was transferred to sets of tubes, one set for each bacterial inoculum.

[2] = system: Klebsiella pneumoniae 39645; assay: as above; type: cell-based; conditions: 18-20 hours static incubation, read-out: Minimal Inhibitory Concentration (MIC)
Procedure: as §1

Proteus mirabilis MGH-1 = assay: as above; type: cell-based; conditions: MGH1, 18-20 hours static incubation, read-out: Minimal Inhibitory Concentration (MIC)
Procedure: as §1

[3] = system: Pseudomonas aeruginosa MGH-2; assay: as above; type: cell-based; conditions: MGH2, 18-20 hours static incubation, read-out: Minimal Inhibitory Concentration (MIC)
Procedure: as §1

[4] = system: Staphylococcus aureus Smith; assay: as above; type: cell-based; conditions: 18-20 hours static incubation, read-out: Minimal Inhibitory Concentration (MIC)
Procedure: as §1

[5] = system: Streptococcus pyogenes C203; assay: as above; type: cell-based; conditions: 18-20 hours static incubation, read-out: Minimal Inhibitory Concentration (MIC)
Procedure: as §1

Escherichia coli Vogel [6] = assay: in vivo antibacterial activity in mice infected with E. coli (PD50); design: species or system mouse (female) infected with Escherichia coli; conditions: sc, 168 h, read-out: Protective Dose (PD50)
Procedure: (§2) The in vivo antibacterial activity of the compounds of the invention was determined in female mice, 18-20 grams each, by the following procedure:
(§3) Aqueous solutions of the compounds to be tested were prepared by dissolving the free acid form in dilute sodium hydroxide and diluting the solution with distilled water to be desired volume.
(§4) Cultures of Escherichia coli Vogel prepared in brain heart infusion broth, cultures of Klebsiella pneumoniae 39645 grown in tryptose phosphate broth with 5% rabbit serum diluted in the same broth and cultures of Pseudomonas aeruginosa MGH-2 grown on brain heart infusion agar and suspended in physiological saline, were used to infect the mice as follows:
Mice infected with E. coli were medicated once (0.5 ml) one-half hour post infection, the test compound being administered by either the subcutaneous (s.c.) or oral (p.o.) route. Deaths were recorded daily for seven days.
(§5) Groups of ten animals each for four or five dose levels were thus treated and the number of survivors in each group recorded. The fifty percent protective dose values (PD50) were then calculated.

[7] = system: Klebsiella pneumoniae 39645; assay: in vivo antibacterial activity in mice infected with K. pneumoniae (PD50); design: species or system mouse (female) infected with Klebsiella pneumoniae; conditions: Klebsiella pneumoniae, 39645, sc, 336 h, read-out: Protective Dose (PD50)
Procedure: as §2, §3, §4
K. pneumoniae: mice were inoculated intramuscularly in the right hind leg with 0.2 ml of the bacterial test inoculum (2.05×10^4 cells/ml).
Mice infected with K. pneumoniae were medicated at the following times: seventeen hours and one hour preinfection, six hours postinfection and twice a day for the next three days. The test compound was administered by both subcutaneous (0.2 ml) and oral (0.5 ml) routes. Deaths were recorded daily for fourteen days.
as §5

Proteus vulgaris 9920 = assay: in vitro antibacterial activity, serial dilution (MIC); type: cell-based; conditions: 18-20 hours static incubation, read-out: Minimal Inhibitory Concentration (MIC)
Procedure: as §1

[8] = system: Pseudomonas aeruginosa MGH-2; assay: in vivo antibacterial activity in mice infected with P. aeruginosa (PD50); design: species or system mouse (female) infected with Pseudomonas aeruginosa; conditions: MGH2, sc, 168 h, read-out: Protective Dose (PD50)
Procedure: as §2, §3, §4
Deaths were recorded daily for seven days.
as §5

[9] = mouse, E. coli, s.c., once one-half hour post infection, 7 days
[10] = mouse, K. pneumoniae, s.c., pre- and postinfection, 14 days

## CNn1cc(C(=O)O)c(=O)c2cc(F)c(N3CCN(C(C)C)CC3)cc21 [Example 10, 6-Fluoro-1,4-dihydro-1-methylamino-7-[4-(1-methylethyl)-1-piperazinyl]-4-oxo-3-quinolinecarboxylic acid]
Escherichia coli Vogel [1]
  MIC: 0.5 µg/mL (≈ 1.38 µM)
[2]
  MIC: 0.5 µg/mL (≈ 1.38 µM)
Proteus mirabilis MGH-1
  MIC: 4 µg/mL (≈ 11 µM)
[3]
  MIC: 8 µg/mL (≈ 22.1 µM)
[4]
  MIC: 2 µg/mL (≈ 5.52 µM)
[5]
  MIC: 4 µg/mL (≈ 11 µM)
Escherichia coli Vogel [6]; [9]
  ED50: 2.7 mg/kg
[7]; [10]
  ED50: 50 mg/kg

## CNn1cc(C(=O)O)c(=O)c2cc(F)c(N3CCC(O)C3)cc21 (stereo not shown) [Example 22, 6-Fluoro-1,4-dihydro-7-(3-hydroxy-1-pyrrolidinyl)-1-methylamino-4-oxo-3-quinolinecarboxylic acid]
Escherichia coli Vogel [1]
  MIC: 1 µg/mL (≈ 3.11 µM)
[2]
  MIC: 4 µg/mL (≈ 12.4 µM)
Proteus mirabilis MGH-1
  MIC: 1 µg/mL (≈ 3.11 µM)
[3]
  MIC: 4 µg/mL (≈ 12.4 µM)
[4]
  MIC: 1 µg/mL (≈ 3.11 µM)
[5]
  MIC: 16 µg/mL (≈ 49.8 µM)
Escherichia coli Vogel [6]; [9]
  ED50: 10.4 mg/kg
[7]; [10]
  ED50: 118 mg/kg

## CCCNn1cc(C(=O)O)c(=O)c2cc(F)c(N3CCN(C)CC3)cc21 [Example 6, 6-Fluoro-1,4-dihydro-7-(4-methyl-1-piperazinyl)-4-oxo-1-propylamino-3-quinolinecarboxylic acid]
Escherichia coli Vogel [1]
  MIC: 2 µg/mL (≈ 5.52 µM)
[2]
  MIC: 2 µg/mL (≈ 5.52 µM)
Proteus mirabilis MGH-1
  MIC: 31.3 µg/mL (≈ 86.4 µM)
Proteus vulgaris 9920
  MIC: 2 µg/mL (≈ 5.52 µM)
[3]
  MIC: 31.3 µg/mL (≈ 86.4 µM)
[4]
  MIC: 15.6 µg/mL (≈ 43 µM)
[5]
  MIC: 125 µg/mL (≈ 345 µM)
Escherichia coli Vogel [6]; [9]
  ED50: 32 mg/kg
[7]; [10]
  ED50: > 200 mg/kg

## CCNn1cc(C(=O)O)c(=O)c2cc(F)c(Cl)cc21 [7-Chloro-1-ethylamino-6-fluoro-1,4-dihydro-4-oxo-3-quinolinecarboxylic acid]
Escherichia coli Vogel [1]
  MIC: 1.95 µg/mL (≈ 6.85 µM)
[2]
  MIC: 3.9 µg/mL (≈ 13.7 µM)
Proteus mirabilis MGH-1
  MIC: 3.9 µg/mL (≈ 13.7 µM)
Proteus vulgaris 9920
  MIC: 0.25 µg/mL (≈ 0.878 µM)
[3]
  MIC: 31.3 µg/mL (≈ 110 µM)
[4]
  MIC: 15.6 µg/mL (≈ 54.8 µM)
[5]
  MIC: 31.3 µg/mL (≈ 110 µM)

## CNn1cc(C(=O)O)c(=O)c2cc(F)c(N3CCNCC3)cc21 [Example 4, 6-Fluoro-1,4-dihydro-1-methylamino-4-oxo-7-(1-piperazinyl)-3-quinolinecarboxylic acid]
Escherichia coli Vogel [1]
  MIC: 1 µg/mL (≈ 3.12 µM)
[2]
  MIC: 1 µg/mL (≈ 3.12 µM)
Proteus mirabilis MGH-1
  MIC: 0.5 µg/mL (≈ 1.56 µM)
Proteus vulgaris 9920
  MIC: 0.25 µg/mL (≈ 0.78 µM)
[3]
  MIC: 1 µg/mL (≈ 3.12 µM)
[4]
  MIC: 2 µg/mL (≈ 6.24 µM)
Escherichia coli Vogel [6]
  ED50: 0.32 mg/kg
[7]
  ED50: 6.25 mg/kg
[8]
  ED50: 0.46 mg/kg

## CNn1cc(C(=O)O)c(=O)c2cc(F)c(N3CCCN(C)CC3)cc21 [Example 20, 6-Fluoro-7-(hexahydro-4-methyl-1H-1,4-diazapin-1-yl)-1,4-dihydro-1-methylamino-4-oxo-3-quinolinecarboxylic acid]
Escherichia coli Vogel [1]
  MIC: 2 µg/mL (≈ 5.74 µM)
[2]
  MIC: 4 µg/mL (≈ 11.5 µM)
Proteus mirabilis MGH-1
  MIC: 2 µg/mL (≈ 5.74 µM)
[3]
  MIC: 4 µg/mL (≈ 11.5 µM)
[4]
  MIC: 4 µg/mL (≈ 11.5 µM)
[5]
  MIC: 32 µg/mL (≈ 91.9 µM)
Escherichia coli Vogel [6]; [9]
  ED50: 3.6 mg/kg
[7]; [10]
  ED50: 33 mg/kg
